Measured values taken from PubChem BioAssay (NCI).
Several values for one entry are separate records, joined by “and”; a condition that tells them apart may be missing. Equal entries are not always repeated.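 Values below derive from 48-hour exposures of cells grown in 96-well plates, with endpoints linearly interpolated between the two concentrations bracketing the appropriate inhibition level. GI50: concentration for 50% inhibition of growth. TGI: total growth inhibition.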

Legend:
Assay in all cases: inhibition of tumour cell growth, NCI panel, 48 h
CCRF-CEM leukemia = system: CCRF-CEM leukemia
DU-145 prostate = system: DU-145 prostate
HL-60(TB) leukemia = system: HL-60(TB) leukemia
HOP-62 NSCLC = system: HOP-62 NSCLC
OVCAR-5 ovarian = system: OVCAR-5 ovarian
OVCAR-8 ovarian = system: OVCAR-8 ovarian
SK-MEL-2 melanoma = system: SK-MEL-2 melanoma
SNB-75 CNS = system: SNB-75 CNS
SR leukemia = system: SR leukemia
SW-620 colon = system: SW-620 colon
U251 CNS = system: U251 CNS
LOX IMVI melanoma = system: LOX IMVI melanoma

**Q.** Which results are given for `C=CCC1C2CCC(O[Si](C(C)C)(C(C)C)C(C)C)(C(C(=O)OC)C2)C1O` (stereo not given)?
**A.** TGI (CCRF-CEM leukemia): > 100 µM; TGI (DU-145 prostate): > 100 µM; TGI (HL-60(TB) leukemia): 36.7 µM; TGI (HOP-62 NSCLC): > 100 µM; TGI (OVCAR-5 ovarian): > 100 µM; TGI (OVCAR-8 ovarian): > 100 µM; TGI (SK-MEL-2 melanoma): > 100 µM; TGI (SNB-75 CNS): > 100 µM; TGI (SR leukemia): > 100 µM; TGI (SW-620 colon): > 100 µM; TGI (U251 CNS): > 100 µM

**Q.** Which TGI (DU-145 prostate) does the source give for `Nc1cc(N)c(N=Nc2cccc3c(S(=O)(=O)O)cccc23)cc1N=Nc1cc([N+](=O)[O-])ccc1O` here?
**A.** > 100 µM

**Q.** And the TGI (HOP-62 NSCLC)?
**A.** > 100 µM

**Q.** And the TGI (LOX IMVI melanoma)?
**A.** 37.1 µM

**Q.** What about the TGI (OVCAR-5 ovarian) of the same compound?
**A.** 93.9 µM

**Q.** What about the TGI (OVCAR-8 ovarian) of the same compound?
**A.** > 100 µM

**Q.** And the TGI (SK-MEL-2 melanoma)?
**A.** > 100 µM

**Q.** And the TGI (SNB-75 CNS)?
**A.** > 100 µM

**Q.** And the TGI (SR leukemia)?
**A.** 72.6 µM

**Q.** And the TGI (SW-620 colon)?
**A.** > 100 µM

**Q.** And the TGI (U251 CNS)?
**A.** > 100 µM

**Q.** What does the source list for `Cc1nc2nn(C)cc2c(=O)n1/N=C/c1ccccc1`?
**A.** TGI (CCRF-CEM leukemia): > 100 µM; TGI (HL-60(TB) leukemia): > 100 µM; TGI (HOP-62 NSCLC): > 100 µM; TGI (LOX IMVI melanoma): > 100 µM; TGI (OVCAR-5 ovarian): > 100 µM; TGI (OVCAR-8 ovarian): > 100 µM; TGI (SK-MEL-2 melanoma): > 100 µM; TGI (SNB-75 CNS): > 100 µM; TGI (SR leukemia): > 100 µM; TGI (SW-620 colon): > 100 µM; TGI (U251 CNS): > 100 µM

**Q.** How did the TGI (CCRF-CEM leukemia) turn out when `COc1nc(OC)nc(Sc2ccc(Sc3ccc(Sc4nc(OC)nc(OC)n4)cc3)cc2)n1` was run?
**A.** > 100 µM

**Q.** And the TGI (HL-60(TB) leukemia)?
**A.** > 100 µM

**Q.** What about the TGI (LOX IMVI melanoma) of the same compound?
**A.** > 100 µM

**Q.** And the TGI (OVCAR-5 ovarian)?
**A.** > 100 µM

**Q.** And the TGI (OVCAR-8 ovarian)?
**A.** > 100 µM

**Q.** And the TGI (SK-MEL-2 melanoma)?
**A.** > 100 µM

**Q.** And the TGI (SNB-75 CNS)?
**A.** > 100 µM

**Q.** What about the TGI (SR leukemia) of the same compound?
**A.** > 100 µM

**Q.** And the TGI (SW-620 colon)?
**A.** > 100 µM

**Q.** And the TGI (U251 CNS)?
**A.** > 100 µM

**Q.** For `CC(Nc1n[nH]c(=O)c2c1nnn2Cc1ccccc1)c1ccccc1` (stereo not given), which TGI (CCRF-CEM leukemia) is on record?
**A.** > 100 µM

**Q.** What about the TGI (DU-145 prostate) of the same compound?
**A.** > 100 µM

**Q.** And the GI50 (HL-60(TB) leukemia)?
**A.** 37.4 µM and > 100 µM

**Q.** And the TGI (HL-60(TB) leukemia)?
**A.** > 100 µM

**Q.** What about the GI50 (HOP-62 NSCLC) of the same compound?
**A.** > 100 µM and 21.7 µM

**Q.** And the TGI (HOP-62 NSCLC)?
**A.** > 100 µM and 86 µM

**Q.** What about the GI50 (LOX IMVI melanoma) of the same compound?
**A.** > 100 µM and 32.7 µM

**Q.** And the TGI (LOX IMVI melanoma)?
**A.** > 100 µM

**Q.** And the TGI (OVCAR-5 ovarian)?
**A.** > 100 µM

**Q.** What about the GI50 (OVCAR-8 ovarian) of the same compound?
**A.** > 100 µM and 44.5 µM

**Q.** And the TGI (OVCAR-8 ovarian)?
**A.** > 100 µM

**Q.** What about the GI50 (SK-MEL-2 melanoma) of the same compound?
**A.** > 100 µM and 41.5 µM

**Q.** What about the TGI (SK-MEL-2 melanoma) of the same compound?
**A.** > 100 µM

**Q.** And the GI50 (SR leukemia)?
**A.** > 100 µM and 48 µM

**Q.** And the TGI (SR leukemia)?
**A.** > 100 µM

**Q.** What about the TGI (U251 CNS) of the same compound?
**A.** > 100 µM and 88.7 µM

**Q.** `CC/C=C/C(/C=C/C[C@]1(CC)C[C@H](CC)[C@H](CC(=O)O)OO1)CC` (stereo not given in full) was tested. Which TGI (CCRF-CEM leukemia) did it give?
**A.** 1.95 µM

**Q.** And the TGI (DU-145 prostate)?
**A.** 4.36 µM

**Q.** And the TGI (HL-60(TB) leukemia)?
**A.** 4.76 µM

**Q.** And the TGI (HOP-62 NSCLC)?
**A.** 3.5 µM

**Q.** What about the TGI (LOX IMVI melanoma) of the same compound?
**A.** 1.76 µM

**Q.** And the TGI (OVCAR-5 ovarian)?
**A.** 7.61 µM

**Q.** And the TGI (OVCAR-8 ovarian)?
**A.** 13.1 µM

**Q.** What about the TGI (SK-MEL-2 melanoma) of the same compound?
**A.** 9.11 µM

**Q.** What about the TGI (SNB-75 CNS) of the same compound?
**A.** 15.4 µM

**Q.** And the TGI (SW-620 colon)?
**A.** 5.1 µM

**Q.** What about the TGI (U251 CNS) of the same compound?
**A.** 3.36 µM

**Q.** Which TGI (CCRF-CEM leukemia) does the source give for `O=C(O)CCc1nc2cc3ccccc3cc2[nH]c1=O` here?
**A.** > 100 µM

**Q.** And the TGI (DU-145 prostate)?
**A.** > 100 µM

**Q.** And the TGI (HOP-62 NSCLC)?
**A.** > 100 µM

**Q.** What about the TGI (LOX IMVI melanoma) of the same compound?
**A.** > 100 µM

**Q.** And the TGI (OVCAR-5 ovarian)?
**A.** > 100 µM

**Q.** And the TGI (OVCAR-8 ovarian)?
**A.** > 100 µM

**Q.** And the TGI (SK-MEL-2 melanoma)?
**A.** > 100 µM

**Q.** And the TGI (SNB-75 CNS)?
**A.** > 100 µM

**Q.** What about the TGI (SR leukemia) of the same compound?
**A.** > 100 µM

**Q.** What about the TGI (SW-620 colon) of the same compound?
**A.** > 100 µM

**Q.** What about the TGI (U251 CNS) of the same compound?
**A.** > 100 µM

**Q.** For `O=C1Cc2ccccc2CCc2ccsc21`, which TGI (CCRF-CEM leukemia) is on record?
**A.** > 100 µM

**Q.** What about the TGI (HL-60(TB) leukemia) of the same compound?
**A.** > 100 µM

**Q.** And the TGI (LOX IMVI melanoma)?
**A.** > 100 µM

**Q.** What about the TGI (OVCAR-5 ovarian) of the same compound?
**A.** > 100 µM

**Q.** And the TGI (OVCAR-8 ovarian)?
**A.** > 100 µM

**Q.** What about the TGI (SK-MEL-2 melanoma) of the same compound?
**A.** > 100 µM

**Q.** What about the TGI (SNB-75 CNS) of the same compound?
**A.** > 100 µM

**Q.** And the TGI (SR leukemia)?
**A.** > 100 µM

**Q.** What about the TGI (SW-620 colon) of the same compound?
**A.** > 100 µM

**Q.** And the TGI (U251 CNS)?
**A.** > 100 µM

**Q.** How did the TGI (CCRF-CEM leukemia) turn out when `Cc1cc(C)nc(NS(=O)(=O)c2ccc(NC(=O)c3cccc4c(N)c5ccccc5nc34)cc2)n1` was run?
**A.** > 100 µM

**Q.** What about the TGI (HOP-62 NSCLC) of the same compound?
**A.** > 100 µM

**Q.** And the TGI (LOX IMVI melanoma)?
**A.** > 100 µM

**Q.** What about the TGI (OVCAR-5 ovarian) of the same compound?
**A.** > 100 µM

**Q.** What about the TGI (OVCAR-8 ovarian) of the same compound?
**A.** > 100 µM

**Q.** And the TGI (SK-MEL-2 melanoma)?
**A.** > 100 µM

**Q.** What about the TGI (SNB-75 CNS) of the same compound?
**A.** > 100 µM

**Q.** What about the TGI (SW-620 colon) of the same compound?
**A.** > 100 µM

**Q.** And the TGI (U251 CNS)?
**A.** > 100 µM

**Q.** With `C=C(CC)C[C@@H]1C[C@]2(C(=O)OC)c3[nH]c4ccccc4c3CCN2C1=O` as the compound, how does the TGI (DU-145 prostate) read?
**A.** > 100 µM

**Q.** What about the TGI (HL-60(TB) leukemia) of the same compound?
**A.** 82.5 µM

**Q.** And the TGI (HOP-62 NSCLC)?
**A.** 34 µM

**Q.** What about the TGI (LOX IMVI melanoma) of the same compound?
**A.** 33.5 µM

**Q.** And the TGI (OVCAR-5 ovarian)?
**A.** 56 µM

**Q.** And the TGI (OVCAR-8 ovarian)?
**A.** > 100 µM

**Q.** What about the TGI (SK-MEL-2 melanoma) of the same compound?
**A.** 33.1 µM

**Q.** And the TGI (SNB-75 CNS)?
**A.** 66.2 µM

**Q.** What about the TGI (SR leukemia) of the same compound?
**A.** > 100 µM

**Q.** And the TGI (SW-620 colon)?
**A.** 35.9 µM

**Q.** And the TGI (U251 CNS)?
**A.** 40.8 µM
